Assay results taken from paper PMC8286840, “Identifying SARS-CoV-2 antiviral compounds by screening for small molecule inhibitors of Nsp3 papain-like protease” (Biochemical Journal, 2021).
Where a name gives a salt, the structure may show the parent alone. Read-outs that look alike come from different tables or passages of the source.

Columns and labels:
[1] = target: T1, SARS-CoV-2 PLpro (nsp3 1564–1878) (Severe acute respiratory syndrome coronavirus 2, UniProt P0DTD1); test: biochemical; set-up: FRET-quenched peptide (Pro3) cleavage by PLpro, 10 min pre-incubation, slope over 20 min, normalised to no-compound control; conditions: low concentration screen, read-out: % of control remaining
[2] = target: T1, SARS-CoV-2 PLpro (nsp3 1564–1878); test: biochemical; set-up: FRET-quenched peptide (Pro3) cleavage by PLpro, 10 min pre-incubation, slope over 20 min, normalised to no-compound control; conditions: high concentration screen, read-out: % of control remaining

COc1cc2c(cc1Cc1cccc(Cl)c1F)c(=O)c(C(=O)O)cn2[C@H](CO)C(C)C [Elvitegravir (GS-9137)]
remaining activity at 1.25 µM ([1]; Well no.=5008): 99.3% | remaining activity at 3.75 µM ([2]; Well no.=5008): 101%

CCCCCCCCCCCC1=C(O)C(=O)C=C(O)C1=O [Embelin]
remaining activity at 1.25 µM ([1]; Well no.=3273): 105% | remaining activity at 1.25 µM ([1]; Well no.=6494): 95.2% | remaining activity at 3.75 µM ([2]; Well no.=3273): 107% | remaining activity at 3.75 µM ([2]; Well no.=6494): 88.6%

CC[C@H]1CN2CCc3cc(OC)c(OC)cc3[C@@H]2C[C@@H]1C[C@H]1NCCc2cc(OC)c(OC)cc21 [Emetine dihydrochloride hydrate]
remaining activity at 1.25 µM ([1]; Well no.=646): 104% | remaining activity at 3.75 µM ([2]; Well no.=646): 103%

CC(C)C[C@H]1C(=O)O[C@H](Cc2ccc(N3CCOCC3)cc2)C(=O)N(C)[C@@H](CC(C)C)C(=O)O[C@H](C)C(=O)N(C)[C@@H](CC(C)C)C(=O)O[C@H](Cc2ccc(N3CCOCC3)cc2)C(=O)N(C)[C@@H](CC(C)C)C(=O)O[C@H](C)C(=O)N1C [Emodepside]
remaining activity at 1.25 µM ([1]; Well no.=8506): 100% | remaining activity at 3.75 µM ([2]; Well no.=8506): 100%

Cc1cc(O)c2c(c1)C(=O)c1cc(O)cc(O)c1C2=O [Emodin]
remaining activity at 1.25 µM ([1]; Well no.=749): 98.9% | remaining activity at 1.25 µM ([1]; Well no.=3282): 92% | remaining activity at 3.75 µM ([2]; Well no.=749): 96.3% | remaining activity at 3.75 µM ([2]; Well no.=3282): 93.4%

OC[C@H]1O[C@@H](c2ccc(Cl)c(Cc3ccc(O[C@H]4CCOC4)cc3)c2)[C@H](O)[C@@H](O)[C@@H]1O [Empagliflozin (BI 10773)]
remaining activity at 1.25 µM ([1]; Well no.=8724): 98.6% | remaining activity at 3.75 µM ([2]; Well no.=8724): 91.3%

C[C@H](NC(=O)C(=O)Nc1ccccc1C(C)(C)C)C(=O)N[C@@H](CC(=O)O)C(=O)COc1c(F)c(F)cc(F)c1F [Emricasan]
remaining activity at 1.25 µM ([1]; Well no.=7118): 95.7% | remaining activity at 3.75 µM ([2]; Well no.=7118): 95.9%

Nc1nc(=O)n([C@@H]2CS[C@H](CO)O2)cc1F [Emtricitabine]
remaining activity at 1.25 µM ([1]; Well no.=1733): 100% | remaining activity at 3.75 µM ([2]; Well no.=1733): 100%

CCOC(=O)[C@H](CCc1ccccc1)N[C@@H](C)C(=O)N1CCC[C@H]1C(=O)O [Enalapril (maleate)]
remaining activity at 1.25 µM ([1]; Well no.=7638): 93.9% | remaining activity at 3.75 µM ([2]; Well no.=7638): 94.6%

CCOC(=O)[C@H](CCc1ccccc1)N[C@@H](C)C(=O)N1CCC[C@H]1C(=O)O [Enalapril]
remaining activity at 1.25 µM ([1]; Well no.=2024): 93.5% | remaining activity at 3.75 µM ([2]; Well no.=2024): 102%

C[C@H](N[C@@H](CCc1ccccc1)C(=O)O)C(=O)N1CCC[C@H]1C(=O)O [Enalaprilat (dihydrate)]
remaining activity at 1.25 µM ([1]; Well no.=7842): 94.7% | remaining activity at 3.75 µM ([2]; Well no.=7842): 97.1%

C[C@H](N[C@@H](CCc1ccccc1)C(=O)O)C(=O)N1CCC[C@H]1C(=O)O [Enalaprilat Dihydrate]
remaining activity at 1.25 µM ([1]; Well no.=8094): 96.7% | remaining activity at 3.75 µM ([2]; Well no.=8094): 98.4%

C[C@H](N[C@@H](CCc1ccccc1)C(=O)O)C(=O)N1CCC[C@H]1C(=O)O [Enalaprilat]
remaining activity at 1.25 µM ([1]; Well no.=1900): 95.1% | remaining activity at 1.25 µM ([1]; Well no.=5968): 99.8% | remaining activity at 3.75 µM ([2]; Well no.=1900): 93.8% | remaining activity at 3.75 µM ([2]; Well no.=5968): 98.2%

CCCCCCCCCCCCCCCCOCC(COP(=O)([O-])OCC[N+](C)(C)C)OC(C)=O (stereo not drawn) [Enantio-PAF C16]
remaining activity at 1.25 µM ([1]; Well no.=4455): 98.4% | remaining activity at 3.75 µM ([2]; Well no.=4455): 100%

CC(C)(O)CNc1nc(Nc2ccnc(C(F)(F)F)c2)nc(-c2cccc(C(F)(F)F)n2)n1 [Enasidenib (AG-221)]
remaining activity at 1.25 µM ([1]; Well no.=8582): 101% | remaining activity at 3.75 µM ([2]; Well no.=8582): 101%

NC(=O)[C@H](Cc1ccccc1)NC(=O)[C@H](Cc1c[nH]c2ccccc12)NC(=O)[C@@H]1CCCN1C(=O)[C@@H](N)Cc1ccc(O)cc1 [Endomorphin 1]
remaining activity at 1.25 µM ([1]; Well no.=7901): 102% | remaining activity at 3.75 µM ([2]; Well no.=7901): 97.8%

O=C(O)[C@@H]1[C@H](C(=O)O)[C@H]2CC[C@@H]1O2 [Endothall]
remaining activity at 1.25 µM ([1]; Well no.=701): 97.9% | remaining activity at 3.75 µM ([2]; Well no.=701): 97.8%

CCn1cc(C(=O)O)c(=O)c2cc(F)c(N3CCNCC3)nc21 [Enoxacin]
remaining activity at 1.25 µM ([1]; Well no.=2026): 103% | remaining activity at 3.75 µM ([2]; Well no.=2026): 106%

CSc1ccc(C(=O)c2[nH]c(=O)[nH]c2C)cc1 [Enoximone]
remaining activity at 1.25 µM ([1]; Well no.=406): 103% | remaining activity at 3.75 µM ([2]; Well no.=406): 102%

CCN1CCN(c2cc3c(cc2F)c(=O)c(C(=O)O)cn3C2CC2)CC1 [Enrofloxacin]
remaining activity at 1.25 µM ([1]; Well no.=2028): 104% | remaining activity at 3.75 µM ([2]; Well no.=2028): 104%
